Test results published in patent US10760110B2, “Antibiotic testing and screening system” (priority 2017, dated 2020).
Read-outs that look alike come from different tables or passages of the source.

Tests used:
Conditions in all cases: Klebsiella pneumoniae
[1] = test system: K. pneumoniae NVT1001 ΔramRΔompK35/36 mutant and its revertants; assay: Etest MIC, ΔramRΔompK35/36 mutant and its revertants (Table 7); format: cell-based
[2] = test system: K. pneumoniae NVT1001 and its ΔompK35/36 and/or ΔramR mutants; assay: Etest MIC, OmpK35/36 loss and AcrAB-TolC overexpression (ΔramR) strains (Table 6); format: cell-based, Klebsiella pneumoniae
Method in brief: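 Etest strips per kit instructions; off-scale intermediate readings rounded upward to the nearest two-fold concentration. Broth microdilution (CLSI) for ceftazidime, cefotaxime only. Breakpoints: CLSI 2017 generally, CLSI 2015 for cephalothin, EUCAST 2017 for moxifloxacin.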

[3] = test system: K. pneumoniae NVT1001 strains with carbapenemase plasmids; assay: Etest MIC of β-lactams, OmpK35/36 loss, ΔramR and/or carbapenemase (Table 9); format: cell-based, Klebsiella pneumoniae
Protocol: DNA fragments of the resistance genes along with their flanking regions were amplified from clinical plasmids via PCR with specific primer pairs. The resulting PCR fragments were digested and then cloned into the plasmid pACYC177 or pACYC184. The resulting plasmids were then transformed into K. pneumoniae strain NVT1001 via electroporation. The recombinant bacteria were plated onto LB agar plates containing kanamycin (50 mg/L) or chloramphenicol (50 mg/L), and the presence of the cloned gene was confirmed via PCR and DNA sequencing.
The MICs of antibiotics were determined using the Etest (Biodisk AB, Sweden) according to the manufacturer's instructions. The MICs from the Etest, which fall between standard two-fold dilutions, were rounded up to the next highest two-fold value. The MICs of ceftazidime and cefotaxime against K. pneumoniae NVT1001 harbouring the pACYC177 plasmid with blaOXA-48 were further determined using a broth microdilution test according to the recommendations of the CLSI,^25 and the results were interpreted according to the breakpoints established by the CLSI in 2017.^25 Meanwhile, due to the lack of CLSI breakpoints in 2016 and 2017, the results for cephalothin were interpreted according to the breakpoints established by the CLSI in 2015,^26 and the results for moxifloxacin were interpreted according to the breakpoints established by the EUCAST in 2017.^27

Measured: MIC

CC(C)(O/N=C(\C(=O)N[C@@H]1C(=O)N2C(C(=O)[O-])=C(C[n+]3ccccc3)CS[C@H]12)c1csc(N)n1)C(=O)O [Ceftazidime]
128 µg/mL: [3]; KPC-2 on pACYC177, ΔramR mutant | [3]; KPC-2 on pACYC177, ΔramRΔ35 (ΔramRΔompK35 mutant) | [3]; KPC-2 on pACYC177, ΔramRΔ35/36 (ΔramRΔompK35/36 mutant) | [3]; KPC-2 on pACYC177, ΔramRΔ36 (ΔramRΔompK36 mutant) | [3]; KPC-3 on pACYC177, WT (NVT1001), read-out: MIC | [3]; KPC-3 on pACYC177, Δ36 (ΔompK36 mutant)
0.25 µg/mL: [1]; ΔramRΔompK35/36::ramR::ompK35/36 revertant | [1]; ΔramRΔompK35/36::ramR::ompK35 revertant | [2]; WT, NVT1001, read-out: MIC | [3]; no supplemental plasmid, WT (NVT1001), read-out: MIC
2 µg/mL: [1]; ΔramRΔompK35/36::ompK35/36 revertant | [1]; ΔramRΔompK35/36::ompK35 revertant | [1]; ΔramRΔompK35/36::ompK36 revertant | [1]; ΔramRΔompK35/36 mutant | [2]; ΔramR mutant | [2]; ΔramRΔ35, ΔramRΔompK35 mutant | [2]; ΔramRΔ35/36, ΔramRΔompK35/36 mutant | [2]; ΔramRΔ36, ΔramRΔompK36 mutant | [3]; OXA-48 on pACYC177, Δ35/36 (ΔompK35/36 mutant) | [3]; OXA-48 on pACYC177, ΔramR mutant | [3]; OXA-48 on pACYC177, ΔramRΔ35 (ΔramRΔompK35 mutant) | [3]; OXA-48 on pACYC177, ΔramRΔ35/36 (ΔramRΔompK35/36 mutant) | [3]; OXA-48 on pACYC177, ΔramRΔ36 (ΔramRΔompK36 mutant) | [3]; no supplemental plasmid, ΔramR mutant | [3]; no supplemental plasmid, ΔramRΔ35 (ΔramRΔompK35 mutant) | [3]; no supplemental plasmid, ΔramRΔ35/36 (ΔramRΔompK35/36 mutant) | [3]; no supplemental plasmid, ΔramRΔ36 (ΔramRΔompK36 mutant)
256 µg/mL: [3]; KPC-2 on pACYC177, Δ35/36 (ΔompK35/36 mutant)
32 µg/mL: [3]; KPC-2 on pACYC177, Δ36 (ΔompK36 mutant)
0.5 µg/mL: [2]; Δ35, ΔompK35 mutant | [2]; Δ36, ΔompK36 mutant | [3]; OXA-48 on pACYC177, WT (NVT1001), read-out: MIC | [3]; OXA-48 on pACYC177, Δ36 (ΔompK36 mutant) | [3]; no supplemental plasmid, Δ35 (ΔompK35 mutant) | [3]; no supplemental plasmid, Δ36 (ΔompK36 mutant)
1 µg/mL: [1]; ΔramRΔompK35/36::ramR revertant | [1]; ΔramRΔompK35/36::ramR::ompK36 revertant | [2]; Δ35/36, ΔompK35/36 mutant | [3]; OXA-48 on pACYC177, Δ35 (ΔompK35 mutant) | [3]; no supplemental plasmid, Δ35/36 (ΔompK35/36 mutant)
> 256 µg/mL: [3]; IMP-8 on pACYC177, WT (NVT1001), read-out: MIC | [3]; IMP-8 on pACYC177, Δ35 (ΔompK35 mutant) | [3]; IMP-8 on pACYC177, Δ35/36 (ΔompK35/36 mutant) | [3]; IMP-8 on pACYC177, Δ36 (ΔompK36 mutant) | [3]; IMP-8 on pACYC177, ΔramR mutant | [3]; IMP-8 on pACYC177, ΔramRΔ35 (ΔramRΔompK35 mutant) | [3]; IMP-8 on pACYC177, ΔramRΔ35/36 (ΔramRΔompK35/36 mutant) | [3]; IMP-8 on pACYC177, ΔramRΔ36 (ΔramRΔompK36 mutant) | [3]; KPC-3 on pACYC177, Δ35 (ΔompK35 mutant) | [3]; KPC-3 on pACYC177, Δ35/36 (ΔompK35/36 mutant) | [3]; KPC-3 on pACYC177, ΔramR mutant | [3]; KPC-3 on pACYC177, ΔramRΔ35 (ΔramRΔompK35 mutant) | [3]; KPC-3 on pACYC177, ΔramRΔ35/36 (ΔramRΔompK35/36 mutant) | [3]; KPC-3 on pACYC177, ΔramRΔ36 (ΔramRΔompK36 mutant) | [3]; NDM-1 on pACYC177, WT (NVT1001), read-out: MIC | [3]; NDM-1 on pACYC177, Δ35 (ΔompK35 mutant) | [3]; NDM-1 on pACYC177, Δ35/36 (ΔompK35/36 mutant) | [3]; NDM-1 on pACYC177, Δ36 (ΔompK36 mutant) | [3]; NDM-1 on pACYC177, ΔramR mutant | [3]; NDM-1 on pACYC177, ΔramRΔ35 (ΔramRΔompK35 mutant) | [3]; NDM-1 on pACYC177, ΔramRΔ35/36 (ΔramRΔompK35/36 mutant) | [3]; NDM-1 on pACYC177, ΔramRΔ36 (ΔramRΔompK36 mutant) | [3]; VIM-1 on pACYC177, WT (NVT1001), read-out: MIC | [3]; VIM-1 on pACYC177, Δ35 (ΔompK35 mutant) | [3]; VIM-1 on pACYC177, Δ35/36 (ΔompK35/36 mutant) | [3]; VIM-1 on pACYC177, Δ36 (ΔompK36 mutant) | [3]; VIM-1 on pACYC177, ΔramR mutant | [3]; VIM-1 on pACYC177, ΔramRΔ35 (ΔramRΔompK35 mutant) | [3]; VIM-1 on pACYC177, ΔramRΔ35/36 (ΔramRΔompK35/36 mutant) | [3]; VIM-1 on pACYC177, ΔramRΔ36 (ΔramRΔompK36 mutant)
64 µg/mL: [3]; KPC-2 on pACYC177, Δ35 (ΔompK35 mutant)
16 µg/mL: [3]; KPC-2 on pACYC177, WT (NVT1001), read-out: MIC
